# Like-named read-outs stand apart in the source and are kept apart here.
# What was measured:
# [1] = molecular target: T1, Avi-KRAS G12C (1-169) GppNHp/RAF1 RBD-3×FLAG (52-151) (Homo sapiens, UniProt P01116, G12C); experiment: Raf1 RBD-KRAS G12C-GppNHp disruption (protein:protein interaction HTRF assay); format: biochemical
# T1 construct: Avi-KRAS G12C (1-169) GppNHp/RAF1 RBD-3×FLAG (52-151)
# Outline: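 HTRF measuring disruption of 50 nM Avi-KRAS G12C (1-169) loaded with GppNHp binding RAF1 RBD-3×FLAG (52-151), in pH 7.5 Tris buffer with 5 mM MgCl2, 0.1% BSA, 10% DMSO. KRAS preincubated with compound 1 h, then RBD 1 h, then detection reagents 1 h, all at room temperature. Compound titration 30-0.02 μM; activity expressed as percent of DMSO control.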
# [2] = molecular target: T2, GppNHp-loaded KRAS4b (amino acids 1-169) G12C/C118S protein (Homo sapiens, UniProt P01116, C118S/G12C); experiment: Covalent cysteine 12 modification by MALDI-TOF MS, GppNHp-loaded KRAS G12C; format: binding; conditions: 15 minutes reaction time point
# T2 construct: KRAS4b (amino acids 1-169) G12C/C118S protein; made in house
# Outline: (§1)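 KRAS4b 1-169 G12C/C118S loaded with GDP, GppNHp or GTP was used at 1 μM in 20 mM HEPES, 150 mM NaCl, 1 mM MgCl2, pH 7.3, and incubated with compound (5 mM DMSO stock) at room temperature in the dark. % modification at 15 min is adduct peak height over total protein peak heights by linear-mode MALDI-TOF.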
# [3] = molecular target: T3, GTP-loaded KRAS4b (amino acids 1-169) G12C/C118S protein (Homo sapiens, UniProt P01116, C118S/G12C); experiment: Covalent cysteine 12 modification by MALDI-TOF MS, GTP-loaded KRAS G12C; format: binding; conditions: 15 minutes reaction time point
# T3 construct: KRAS4b (amino acids 1-169) G12C/C118S protein; made in house
# Outline: as §1
# [4] = molecular target: T4, GDP-loaded KRAS4b (amino acids 1-169) G12C/C118S protein (Homo sapiens, UniProt P01116, C118S/G12C); experiment: Covalent cysteine 12 modification by MALDI-TOF MS, GDP-loaded KRAS G12C; format: binding; conditions: 15 minutes reaction time point
# T4 construct: KRAS4b (amino acids 1-169) G12C/C118S protein; made in house
# Outline: as §1
# pERK in NCI-H358 cells = experiment: Cell-based pERK HTRF assay; conditions: 30 min incubation, read-out: pERK in NCI-H358 cell inhibition IC50
# Outline: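 Cells seeded at 4×10^4/well in RPMI with 10% FBS, then next day treated for 30 min with a 9-point, 3-fold series from 75 μM top concentration at 0.25% DMSO. Lysates were read for pERK by HTRF (d2/Eu cryptate antibodies) after 4–24 h at room temperature, emission at 615 nm.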
Compound,IC50 [1] [nM],GppNHp-KRAS G12C percent of modification [2],GTP-KRAS G12C percent of modification [3],GDP-KRAS G12C percent of modification [4],"IC50 (pERK in NCI-H358 cells; Homo sapiens, NCI-H358, 0.5 h) [nM]",IC50 (pERK in NCI-H358 cells) [nM]
C=CC(=O)N1CC[C@@H](Oc2nc(OC[C@@]34CCCN3C[C@H](F)C4)nc3c(F)c(-c4ccc(F)c5sc(N)c(C#N)c45)ccc23)C1 [Compound 51],≤ 500,A (percent of modification ≥70%),A (percent of modification ≥70%),A (percent of modification ≥70%),≤ 100,
C=CC(=O)N1CC[C@@H](Oc2nc(OC[C@@]34CCCN3C[C@H](F)C4)nc3c(F)c(-c4c(F)cc(F)c5sc(N)nc45)ncc23)C1 [Compound 57],500 to 5000,C (10%≤modification <50%),D (percent of modification <10%),A (percent of modification ≥70%),100 to 1000,
C=CC(=O)N1CC[C@@H](Oc2nc(OC[C@@]34CCCN3C[C@H](F)C4)nc3c(F)c(-c4ccc(F)c5sc(N)c(C#N)c45)c(Cl)cc23)[C@H]1COC [Compound 111],500 to 5000,D (percent of modification <10%),D (percent of modification <10%),C (10%≤modification <50%),≤ 100,
C=CC(=O)N1CC[C@@H](Oc2nc(OC[C@@]34CCCN3C[C@H](F)C4)nc3c(F)c(-c4ccc(F)c5sc(N)c(C#N)c45)ccc23)[C@@H]1C [Compound 118],500 to 5000,D (percent of modification <10%),D (percent of modification <10%),A (percent of modification ≥70%),> 1000,
C=CC(=O)N1CC[C@@H](Oc2nc(OC[C@@]34CCCN3C[C@H](F)C4)nc3c(Cl)c(-c4ccc(F)c5sc(N)c(C#N)c45)ncc23)[C@@H]1COC [Compound 129],≤ 500,A (percent of modification ≥70%),C (10%≤modification <50%),B (50≤percent of modification <70%),100 to 1000,
C=CC(=O)N1CC[C@@H](Oc2nc(OC[C@@]34CCCN3C[C@H](F)C4)nc3c(F)c(-c4ccc(F)c5sc(N)c(C#N)c45)ncc23)C1 [Compound 56],≤ 500,A (percent of modification ≥70%),B (50≤percent of modification <70%),A (percent of modification ≥70%),≤ 100,
"C=CC(=O)N1C[C@H](Oc2nc(OC[C@@]34CCCN3C[C@H](F)C4)nc3c(F)c(-c4ccc(F)c5sc(N)c(C#N)c45)c(C(F)(F)F)cc23)C[C@H]1COC (atropisomer, axis not shown) [Compound 90]",> 20000,D (percent of modification <10%),D (percent of modification <10%),D (percent of modification <10%),,> 1000
C=CC(=O)N1CC[C@@H](Oc2nc(OC[C@@]34CCCN3C[C@H](F)C4)nc3c(F)c(-c4ccc(F)c5sc(N)c(C#N)c45)c(C(F)(F)F)cc23)[C@H]1CO [Compound 65],≤ 500,A (percent of modification ≥70%),B (50≤percent of modification <70%),B (50≤percent of modification <70%),≤ 100,
C=CC(=O)N1C[C@@H](F)[C@@H](Oc2nc(OC[C@@]34CCCN3C[C@H](F)C4)nc3cc(-c4ccc(F)c5sc(N)nc45)c(C(F)(F)F)cc23)C1 [Compound 58],≤ 500,A (percent of modification ≥70%),B (50≤percent of modification <70%),A (percent of modification ≥70%),≤ 100,
C=CC(=O)N1CC[C@@H](Oc2nc(OC[C@@]34CCCN3C[C@H](F)C4)nc3cc(-c4ccc(F)c5sc(N)c(C#N)c45)c(F)cc23)[C@@H]1C [Compound 119],5000 to 20000,D (percent of modification <10%),D (percent of modification <10%),B (50≤percent of modification <70%),> 1000,
C=CC(=O)N1CC[C@@H](Oc2nc(OC[C@@]34CCCN3C[C@H](F)C4)nc3c(F)c(-c4ccc(F)c5sc(N)c(C#N)c45)c(C(F)(F)F)cc23)[C@@H]1CC [Compound 115],500 to 5000,D (percent of modification <10%),D (percent of modification <10%),C (10%≤modification <50%),100 to 1000,
"C=CC(=O)N1C[C@H](Oc2nc(OC[C@@]34CCCN3C[C@H](F)C4)nc3c(F)c(-c4ccc(F)c5sc(N)c(C#N)c45)c(C(F)(F)F)cc23)C[C@@H]1COC (atropisomer, axis not shown) [Compound 86]",5000 to 20000,D (percent of modification <10%),D (percent of modification <10%),D (percent of modification <10%),,> 1000
C=CC(=O)N1CC[C@@H](Oc2nc(OC[C@@]34CCCN3C[C@H](F)C4)nc3c(F)c(-c4ccc(F)c5sc(N)c(C#N)c45)c(F)cc23)C1 [Compound 52],5000 to 20000,D (percent of modification <10%),D (percent of modification <10%),D (percent of modification <10%),> 1000,
"C=CC(=O)N1CC[C@@H](Oc2nc(OC[C@@]34CCCN3C[C@H](F)C4)nc3cc(-c4ccc(F)c5sc(N)c(C#N)c45)c(C(F)(F)F)nc23)C1 [Compound 55, 4-(4-(((R)-1-acryloylpyrrolidin-3-yl)oxy)-2-(((2R,7aS)-2-fluorotetrahydro-1H-pyrrolizin-7a (5H)-yl)methoxy)-6-(trifluoromethyl)pyrido[3,2-d]pyrimidin-7-yl)-2-amino-7-fluorobenzo[b]thiophene-3-carbonitrile]",≤ 500,C (10%≤modification <50%),D (percent of modification <10%),C (10%≤modification <50%),≤ 100,

# Source: US20250188085A1, “COMPOSITIONS AND METHODS FOR INHIBITION OF RAS” (THERAS, INC., priority 2022, published 2025)
